Blank lines part the entries; values can stand above or below the compound they belong to.
Key:
[1] = Lipid solubility and water solubility compared with Example 5; type: physicochemical
[2] = Pharmacokinetic study in rats; type: in vivo, SD rats; conditions: 10 mg/kg, oral gavage; for bioavailability: male, SD, rat, plasma, po, read-out: Absolute Bioavailability(F %)
Protocol: • Experimental animals: SPF male SD rats; • Dosage and method of administration: 10 mg/kg, oral gavage.
Research compound: Dapagliflozin, the compound of Example 5, the compound of Example 7, the compound of Comparative Example 6; • Test method: Before administration (0), and 1, 4, 8, and 24 hours after administration, 0.2 ml of blood was collected from orbital venous plexus, anticoagulated with heparin, and plasma was collected.

blood glucose [3] = experiment: Oral glucose tolerance test (OGTT) after continuous administration in rats for 14 days; type: in vivo, SD rats; conditions: 0.012 mg/kg oral gavage, OGTT on day 15
Protocol: • Experimental animals: SPF male SD rats; • Compound preparation: an appropriate amount of the compounds of Example 2, Example 3, and Example 5 were weighed, and uniformly suspended with an appropriate amount of 0.5% CMC-Na solution; • Preparation of glucose solution: an appropriate amount of glucose powder was weighed and dissolved with an appropriate amount of pure water; • Dosage and method of administration: 0.012 mg/kg, oral gavage.
(§1) Experimental process: the animals were fed a normal diet with consecutive administration for 14 days, and the glucose tolerance test was performed on day 15, blood glucose was detected before administration (−30 min), before giving glucose (0 min), and 10, 30, 60, and 120 min after giving glucose solution, and the defecation of animals was observed.

[4] = Observation of defecation (loose stools) in rats during OGTT study; type: in vivo, SD rats; conditions: 0.012 mg/kg oral gavage, within 48 hours before and after the experiment
Protocol: as §1

SGLT1 [5] = biological target: T1, SGLT1 (Homo sapiens, UniProt P13866); experiment: HSGLT1 inhibitor activity experiment: 2-NBDG uptake by HEK293 cells stably expressing human SGLT1; type: cell-based; set-up: expressed in transfected cells; host or cells: HEK293; conditions: for IC50: 2-NBDG uptake, HEK293 stably expressing human SGLT1, read-out: SGLT1 Inhibitory Activity
T1 sequence (P13866 1-664): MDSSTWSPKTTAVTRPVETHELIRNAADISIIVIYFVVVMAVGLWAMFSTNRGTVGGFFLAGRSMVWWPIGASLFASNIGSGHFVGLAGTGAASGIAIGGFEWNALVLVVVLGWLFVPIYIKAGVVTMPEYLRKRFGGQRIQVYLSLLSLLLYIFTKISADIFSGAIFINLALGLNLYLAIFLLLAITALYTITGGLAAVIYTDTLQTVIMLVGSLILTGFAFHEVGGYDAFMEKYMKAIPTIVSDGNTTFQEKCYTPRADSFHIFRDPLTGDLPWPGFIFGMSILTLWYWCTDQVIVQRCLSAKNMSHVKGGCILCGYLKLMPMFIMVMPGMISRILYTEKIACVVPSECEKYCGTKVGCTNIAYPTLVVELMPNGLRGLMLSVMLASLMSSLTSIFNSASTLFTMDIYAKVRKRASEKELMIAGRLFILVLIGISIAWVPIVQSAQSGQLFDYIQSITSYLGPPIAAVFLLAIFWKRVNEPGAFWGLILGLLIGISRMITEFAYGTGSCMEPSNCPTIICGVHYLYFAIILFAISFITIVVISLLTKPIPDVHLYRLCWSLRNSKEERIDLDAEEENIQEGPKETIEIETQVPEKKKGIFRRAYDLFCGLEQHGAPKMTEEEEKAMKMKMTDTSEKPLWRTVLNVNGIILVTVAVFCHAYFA
Protocol: Inhibitory activity testing was performed with reference to a similar method described in document (Acta Pharmaceutica Sinica 2017, 52(6):897-903; Nature Protocols (2007), 2(3), 753-762; Journal of Biochemical and Biophysical Methods (2005), 64(3), 207-215; Diabetes Technology & Therapeutics (2011), 13(7), 743-775).
In this experiment, the in vitro activity assay was evaluated using the uptake of 2-NBDG (2-Deoxy-2-[(7-nitro-2,1,3-benzoxadiazol-4-yl)amino]-D-glucose, CAS NO: 186689-07-6) by human embryonic kidney epithelial cells (HEK293, stably expressing human SGLT1), and the SGLT1 inhibitory activity of the target compound was determined by measuring its half-maximal inhibitory concentration (IC50).
HEK293 cells that can stably express human SGLT1 gene were inoculated into a 96-well clear-bottom black plates containing DMEM medium. The cells were incubated at 37° C., 5% CO2in a cell incubator. The medium in the 96-well plate was aspirated, and the plate was treated with low-glucose serum-free DMEM medium, and washed once with non-specific uptake buffer and once with Na^+-dependent uptake buffer. Uptake buffer containing test compound was added to each well of cells, followed by uptake buffer containing 2-NBDG for glucose uptake, and the cell plate was incubated at 37° C., 5% CO2. The compounds were gradiently diluted. The uptake reaction was stopped by removing the culture medium, and after washing the cells with ice-cold uptake buffer, the washing solution was removed. The cells were lysed by adding NaOH, and the content of 2-NBDG in the cells was detected by a fluorescence microplate reader. The protein concentration of the lysate was measured by BCA method, the uptake of 2-NBDG was quantified by fluorescence intensity/protein content, and the obtained data were analyzed using GraphPad Prism to determine the median inhibitory concentration (IC50) of the compound to be tested.

blood glucose [6] = experiment: In vivo hypoglycemic efficacy experiment combined with sitagliptin, STZ-induced type 2 diabetes mouse model; set-up: species or system Balb/C male mice
Protocol: Model establishment: SPF grade Balb/C male mice were used in this experiment, and the establishment of the type 2 diabetes mouse model was induced by intraperitoneal injection of streptozotocin (STZ) supplemented by high-fat and high-sugar diet.
Administration: normal group, model group, low-dose combined administration group (the compound of Example 5 0.02 mg/kg+sitagliptin 20 mg/kg), medium-dose combined administration group (the compound of Example 5 0.06 mg/kg+sitagliptin 20 mg/kg), high-dose combined administration group (the compound of Example 5 0.1 mg/kg+sitagliptin 20 mg/kg), sitagliptin group (20 mg/kg). The normal group and the model group were given the solvent by gavage.

blood glucose [7] = experiment: Oral glucose tolerance test (OGTT) after consecutive administration in mice; type: in vivo; conditions: oral gavage 5 days, OGTT on day 6
Protocol: (§2) • Experimental animals: SPF male mice; • Compound preparation: an appropriate amount of the compounds of Example 5 was weighed, and uniformly suspended with an appropriate amount of 0.5% CMC-Na solution; • Preparation of glucose solution: an appropriate amount of glucose powder was weighed and dissolved with an appropriate amount of pure water; • Administration and dosage: oral gavage; blank vehicle group, high-dose group (1.6 mg/kg), low-dose group (0.12 mg/kg).
(§3) Experimental process: • (1) The mice were fed a high-sugar diet for 6 days, and then grouped (10 mice in each group) to enter the administration stage; • (2) Example compound 5 was administered at 5:00 pm every day from day 1 to day 5, once a day, and then the animals were fed a high-sugar free diet, and the defecation of the animals was observed. • (3) On day 6, oral glucose tolerance test was performed, and glucose solution (2 g/kg) was orally administered. Blood glucose was detected before (0 min) and 10, 30, and 60 min after giving glucose solution, respectively.

SGLT1 [8] = biological target: T1, SGLT1; experiment: SGLT1 Inhibitor Activity Experiment 1; type: cell-based
Protocol: The inhibitory activity of SGLT1 was tested with reference to the method described in document (Journal of Medicinal Chemistry 2017, 60, 710-721, Discovery of LX2761, a Sodium-Dependent Glucose Cotransporter 1 (SGLT1) Inhibitor Restricted to the Intestinal Lumen, for the Treatment of Diabetes).

[9] = Observation of defecation (loose stools) in mice, day 1 to day 5; type: in vivo
Protocol: as §2, §3

rat feces suspension = experiment: Intestinal microbial metabolic stability in rat feces suspension; type: in vitro ADME; conditions: for Remaining percentage of compound: rat feces suspension, 37 C
Protocol: Methods: The collected rat feces were processed, and the feces suspension was obtained for the determination of metabolic stability. The mixed reaction system consisting of the rat feces suspension and the compound of Example 5 was incubated at 37 C for 3 h, 6 h, 12 h and 24 h. The compound of Example 5 in the incubation system was analyzed to determine the total amount of remaining compound. Wherein, “+” represents the remaining percentage being: <50%; “++” represents the remaining percentage being: 50% to 70%; “+++” represents the remaining percentage being: 70% to 90%; […].

SMILES: CCOc1ccc(Cc2cc([C@@H]3O[C@H](CO)[C@@H](O)[C@H](O)[C@H]3O)ccc2Cl)cc1 [Dapagliflozin, reference compound]
- absorption in vivo after oral administration (in words) [2]: absorbed into the blood
- bioavailability [2]: 73%

SMILES: CS[C@H]1O[C@@H](c2ccc(C)c(Cc3ccc(CCCC(=O)NCCN4CCN(C)CC4)cc3)c2)[C@H](O)[C@@H](O)[C@@H]1O [Example 2]
- blood sugar level of rats in OGTT (blood glucose [3]): significantly reduce the blood sugar level
- loose stools in experimental animals [4]: no loose stools were observed
- activity of inhibiting SGLT1 (in words) (SGLT1 [5]): significant activity of inhibiting SGLT1
- IC50 (SGLT1 [5]): 0.97 nM

SMILES: CS[C@H]1O[C@@H](c2ccc(C)c(Cc3ccc(CCCC(=O)NCCN(C)Cc4ccccc4)cc3)c2)[C@H](O)[C@@H](O)[C@@H]1O [Example 4]
- activity of inhibiting SGLT1 (in words) (SGLT1 [5]): significant activity of inhibiting SGLT1
- IC50 (SGLT1 [5]): 1.01 nM

SMILES: C#CCN(C)CCNC(=O)CCCc1ccc(Cc2cc([C@@H]3O[C@H](SC)[C@@H](O)[C@H](O)[C@H]3O)ccc2C)cc1 [Example 5]
- dose-effect relationship of blood glucose reduction (blood glucose [6]; Example 5 0.02, 0.06, 0.1 mg/kg combined with sitagliptin 20 mg/kg): there is a dose-effect relationship
- blood glucose level of diabetic model animals (blood glucose [6]; Example 5 0.02, 0.06 or 0.1 mg/kg combined with sitagliptin 20 mg/kg): significantly reduce the blood glucose level
- blood glucose level of mice in OGTT (blood glucose [7]; high-dose group (1.6 mg/kg)): significantly reduce the blood glucose level
- blood glucose level of mice in OGTT (blood glucose [7]; low-dose group (0.12 mg/kg)): significantly reduce the blood glucose level
- blood sugar level of rats in OGTT (blood glucose [3]): significantly reduce the blood sugar level
- IC50 (SGLT1 [8]): < 50 nM
- absorption in vivo after oral administration (in words) [2]: almost no absorption in vivo
- detection in vivo after oral administration (in words) [2]: hardly detected in vivo
- bioavailability [2]: < 1.5%
- number of animals with loose stools ([9]; high dose group (1.6 mg/kg), day 1): 1 animal
- loose stools (in words) ([9]; high dose group (1.6 mg/kg), day 2 to day 5): did not have loose stools
- Statistics of loose stools in animals ([9]; high-dose group (1.6 mg/kg), Day 1, animals with loose stool/animals in group): 1/10
- Statistics of loose stools in animals ([9]; high-dose group (1.6 mg/kg), Day 2): 0/10
- Statistics of loose stools in animals ([9]; high-dose group (1.6 mg/kg), Day 3): 0/10
- Statistics of loose stools in animals ([9]; high-dose group (1.6 mg/kg), Day 4): 0/10
- Statistics of loose stools in animals ([9]; high-dose group (1.6 mg/kg), Day 5): 0/10
- Statistics of loose stools in animals ([9]; low-dose group (0.12 mg/kg), Day 1): 0/10
- Statistics of loose stools in animals ([9]; low-dose group (0.12 mg/kg), Day 2): 0/10
- Statistics of loose stools in animals ([9]; low-dose group (0.12 mg/kg), Day 3): 0/10
- Statistics of loose stools in animals ([9]; low-dose group (0.12 mg/kg), Day 4): 0/10
- Statistics of loose stools in animals ([9]; low-dose group (0.12 mg/kg), Day 5): 0/10
- loose stools (in words) ([9]; low-dose group (0.12 mg/kg), continuous administration for 5 days): did not have loose stools
- loose stools in experimental animals [4]: no loose stools were observed
- remaining compound (rat feces suspension; incubated with microorganisms in rat feces for about 24 hours): > 70%
- Remaining percentage of compound (rat feces suspension; incubation 12 h): +++ (the remaining percentage being: 70% to 90%)
- Remaining percentage of compound (rat feces suspension; incubation 24 h): +++ (the remaining percentage being: 70% to 90%)
- activity of inhibiting SGLT1 (in words) (SGLT1 [5]): significant activity of inhibiting SGLT1
- IC50 (SGLT1 [5]): 0.37 nM

SMILES: C#CCN(C)CCNC(=O)CCOCc1ccc(Cc2cc([C@@H]3O[C@H](SC)[C@@H](O)[C@H](O)[C@H]3O)ccc2C)cc1 [Example 7]
- IC50 (SGLT1 [8]): < 50 nM
- absorption in vivo after oral administration (in words) [2]: almost no absorption in vivo
- detection in vivo after oral administration (in words) [2]: hardly detected in vivo
- bioavailability [2]: < 1.5%

SMILES: C#CCN(C)CCNC(=O)C/C=C/c1ccc(Cc2cc([C@@H]3O[C@H](SC)[C@@H](O)[C@H](O)[C@H]3O)ccc2C)cc1 [Example 8]
- IC50 (SGLT1 [8]): < 50 nM

Second part, led by results:

- lipid solubility relative to Example 5 [1]: better lipid solubility
SMILES: CS[C@H]1O[C@@H](c2ccc(C)c(Cc3ccc(CCCC(=O)NCCN(C)Cc4cn(C5CC5)nn4)cc3)c2)[C@H](O)[C@@H](O)[C@@H]1O
- water solubility relative to Example 5 [1]: better lipid solubility and water solubility

- loose stools in experimental animals [4]: no loose stools were observed
- activity of inhibiting SGLT1 (in words) (SGLT1 [5]): significant activity of inhibiting SGLT1
- IC50 (SGLT1 [5]): 0.83 nM
SMILES: CS[C@H]1O[C@@H](c2ccc(C)c(Cc3ccc(CCCC(=O)NCCN4CCCCC4)cc3)c2)[C@H](O)[C@@H](O)[C@@H]1O [Example 3]
- blood sugar level of rats in OGTT (blood glucose [3]): significantly reduce the blood sugar level

- IC50 (SGLT1 [8]): < 50 nM
SMILES: C#CCN(C)CCNC(=O)CCOc1ccc(Cc2cc([C@@H]3O[C@H](SC)[C@@H](O)[C@H](O)[C@H]3O)ccc2C)cc1 [Example 6]
